Measured values reported in PMC1971749, “The effects of gonadotrophin releasing hormone analogues in prostate cancer are mediated through specific tumour receptors” (British Journal of Cancer, 1990).
Read-outs that look alike come from different tables or passages of the source.

Key:
[1] = system: GnRH binding sites of DU145 cells; assay: GnRH analogue binding to DU145 cells (displacement of 125I-buserelin); design: species or system human
Text: (§1) Br.~~~~ ~ ~ J. Cace (19) 62 969 ?amla resLd,19 The effects of gonadotrophin releasing hormone analogues in prostate cancer are mediated through specific tumour receptors A. Qayuml, W. Gullick2, R.C. Clayton3, K. Sikora' & J. Waxman' 'Department of Clinical Oncology and 2ICRF Oncology Group, Royal Postgraduate Medical School, and 3Clinical Endocrinology, MRC, Northwick Park Hospital, London, UK. Summary We have investigated the possibility of a direct regulatory effect of gonadotrophin releasing hormone (GnRH) analogues on prostatic cancer cell growth. Here we report high affinity binding (Kd = 50 nM) of a GnRH analogue resulting in biphasic growth modulation of the human androgen-sensitive prostatic cancer cell line LNCaP. […] Seventy-six human benign and malignant tumours were assayed following surgical resection. […] Cancer of the prostate is the second most common cause of malignancy among males. The treatment of prostatic cancer aims to reduce serum androgen concentrations. The long- acting agonist analogues of GnRH have been recently intro- duced as effective alternative therapies to orchiectomy and oestrogen treatment (Waxman, 1987). […] GnRH binding assays Exponentially growing cells were harvested with 0.1% EDTA, washed twice with PBS and counted using 0.2% trypan blue as an indicator. […]

[2] = system: GnRH binding sites of LNCaP cells; assay: GnRH analogue binding to LNCaP cells (displacement of 125I-buserelin); design: species or system human; settings: for displacement of labelled buserelin: specificity test, structurally unrelated peptides, LNCaP
Text: (§2) Br.~~~~ ~ ~ J. Cace (19) 62 969 ?amla resLd,19 The effects of gonadotrophin releasing hormone analogues in prostate cancer are mediated through specific tumour receptors A. Qayuml, W. Gullick2, R.C. Clayton3, K. Sikora' & J. Waxman' 'Department of Clinical Oncology and 2ICRF Oncology Group, Royal Postgraduate Medical School, and 3Clinical Endocrinology, MRC, Northwick Park Hospital, London, UK. Summary We have investigated the possibility of a direct regulatory effect of gonadotrophin releasing hormone (GnRH) analogues on prostatic cancer cell growth. Here we report high affinity binding (Kd = 50 nM) of a GnRH analogue resulting in biphasic growth modulation of the human androgen-sensitive prostatic cancer cell line LNCaP. […] Seventy-six human benign and malignant tumours were assayed following surgical resection. […] Cancer of the prostate is the second most common cause of malignancy among males. The treatment of prostatic cancer aims to reduce serum androgen concentrations. The long- acting agonist analogues of GnRH have been recently intro- duced as effective alternative therapies to orchiectomy and oestrogen treatment (Waxman, 1987). Their effect on andro- gen dependent cell growth is thought to be mediated through down-regulation of the pituitary-gonadal axis. GnRH agon- ist treatment leads to an initial increase in the serum levels of LH, FSH and androgens and this may be accompanied by tumour flare (Waxman et al., 1985). However, this exacerba- tion of symptoms is not temporally related to changes in serum LH, FSH and androgen concentrations. The differ- ences in the timing of these biochemical and clinical phenomena raises the possibility of a direct effect of GnRH analogues at the level of the tumour. This present study explored the direct effects of GnRH analogues on prostatic cancer cells in culture and in vivo. GnRH analogue binding to human prostatic cancer cells grown in culture and biopsy samples was first examined. GnRH binding sites were characterised in cell lines and in human tumours. The biological effects of GnRH on prostatic cancer cells and a possible autocrine stimulatory role of GnRH-like peptides were investigated. Materials and methods Cell culture The human androgen-sensitive prostatic cancer cell line LNCaP (isolated from lymph node metastasis; Horoszewicz et al., 1983) and the human androgen-insensitive prostatic cell line DU145 (isolated from brain metastasis) were obtained from the American Type Culture Collection. Cul- tures were maintained in exponential growth in RPMI 1640 medium containing 10% charcoal stripped fetal calf serum and 5 fig ml-I insulin. The fetal calf serum used in cell cul- ture medium was treated with dextran and charcoal to remove steroids. Charcoal 0.25% and dextran-T70 0.025% were added to the serum, which was heated at 56'C for 2 h and then centrifuged at 4,000 r.p.m. for O min. The pellet was discarded, serum was filtered through 0.4 ltm filters and used in culture medium. The treated serum was assayed for steroid hormones by the Hammersmith Hospital Endocrine Laboratories and found to be steroid free, Cultures were incubated at 37?C in a humidified atmosphere containing 5% CO2 and subcultured weekly using 0.1% EDTA to remove the cells from the plastic substratum. Under these conditions, the doubling times of DU145 and LNCaP cells were 72 and 144 h respectively. GnRH binding assays Exponentially growing cells were harvested with 0.1% EDTA, washed twice with PBS and counted using 0.2% trypan blue as an indicator. The cells were then resuspended in assay buffer (10 mM Tris-HCI pH 7.6, 1 mM dithiothreitol, 0.3% bovine serum albumin). One million cells per tube were incubated with 200,000 c.p.m. (0.1 nM) of 25I buserelin (125J_ D-Ser (TBU)6-LHRH-ethylamide) (Hoechst AG, Frankfurt), (specific activity 53,000 kBq;bg-') with or without varying concentrations of unlabelled buserelin (O.1-100 nM). Non- specific binding was estimated in the presence of 10 IM unlabelled buserelin. […]

[3] = system: LNCaP cells; assay: Biological response study, growth of LNCaP cells; assay type: cell-based, human
Text: as §2, with “Under these conditions, the doubling times of DU145 and LNCaP cells were 72 and 144 h respectively.” left out, “indicator.” for “indicator. The cells were then resuspended in assay buffer (10 mM Tris-HCI pH 7.6, 1 mM dithiothreitol, 0.3% bovine serum albumin). One million cells per tube were incubated with 200,000 c.p.m. (0.1 nM) of 25I buserelin (125J_ D-Ser (TBU)6-LHRH-ethylamide) (Hoechst AG, Frankfurt), (specific activity 53,000 kBq;bg-') with or without varying concentrations of unlabelled buserelin (O.1-100 nM). Non- specific binding was estimated in the presence of 10 IM unlabelled buserelin.”

[4] = system: DU145 cells; assay: Biological response study, growth of DU145 cells; assay type: cell-based, human; settings: DU145 (androgen-insensitive) cells, 10 days
Text: as §1

[5] = GnRH radioimmunoassay, specificity; settings: cross-reactivity control, Figure 1; sensitivity 0.25 fmol per tube
[6] = 100-fold excess of GnRH antagonist over buserelin, cell numbers, triplicate, representative experiment (Figure 6)

## N[C@@H](CSSC[C@H](N)C(=O)Nc1ccc([N+](=O)[O-])cc1)C(=O)Nc1ccc([N+](=O)[O-])cc1 [L-cystine-bis-(4-nitroanilide)]
[1]; protease substrate final concentration 10 µM (printed "10 gsM")
  reduction of specific binding of buserelin by protease substrate: 68%
[2]; LNCaP cells, protease substrate final concentration 10 µM (printed "10 gsM")
  reduction of specific binding of buserelin by protease substrate: 28%

## D-Ser (TBU)6-LHRH-ethylamide [buserelin]
[1]; 125I buserelin 0.1 nM, 3 h, 4 C, pH 7.6, abstract, read-out: Kd, low-affinity binding in DU145
  Kd: 10 µM
[2]; Scatchard transformation of the same data, single class of binding sites in LNCaP cells, read-out: Kd (Scatchard plot)
  Kd: 0.04 µM
[2]; Scatchard transformation, LNCaP cells
  binding sites per cell: 35,000 binding sites per cell
[2]; intact LNCaP cells (10^6 per tube), 125I buserelin 0.1 nM, unlabelled buserelin, Tris-HCl pH 7.6, 3 h, 4 C, triplicate, representative experiment, read-out: Kd of GnRH analogue binding in LNCaP
  Kd: 0.05 µM
[3]; 10 days, GnRH analogue 100 nM
  growth of the cells at higher concentrations: slightly inhibited
[3]; 10 days, buserelin 1-10 nM, 10% charcoal stripped FCS, Burton's method, three experiments each in triplicate
  stimulation of growth relative to control cultures, total DNA content: ≤ 140%
[3]; 10 days, buserelin 1-10 nM, 10% charcoal stripped FCS, three experiments each in triplicate
  stimulation of growth relative to control cultures, cell numbers: ≤ 140%
[4]
  response to buserelin treatment (growth): did not show any response
[4]; listed as GnRH analogue
  response to buserelin treatment (growth): without any biological response

## D-pGlul, D-Phe2, D- Trp3' 6) GnRH [GnRH antagonist]
[3]; [6]
  block of inhibitory effect of buserelin: partially blocked
  block of stimulatory effect of buserelin: partially blocked

## bradykinin: structurally unrelated peptide (RPPGFSPFR; Bradykinin; UniProt P01042 381-389, looked up)
[5]
  GnRH-immunoreactivity in GnRH-RIA: did not show any GnRH-immunoreactivity
[2]
  displacement of labelled buserelin: did not displace labelled buserelin

## oxytocin: structurally unrelated peptide
[5]
  GnRH-immunoreactivity in GnRH-RIA: did not show any GnRH-immunoreactivity
[2]
  displacement of labelled buserelin: did not displace labelled buserelin
